Settings in all cases: 72 h
Assay [1] deals with MFM-223. The method in brief:
(§1)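 Breast cancer cell lines in 20 µl suspension were seeded onto 384-well plates pre-loaded with compound dissolved in 5 µl medium, then incubated 72 h. For viability, 2.5 µl CellTiter-Blue was added for 2 h at 37 °C and fluorescence read at 560/590 nm. Each plate was normalised to vehicle and a positive kill control and checked by Z'-factor. EC50 comes from the fitted percent-inhibition dose-response curve, censored at the highest concentration; rows with zero drug sensitivity score were dropped.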

The subject of assay [2] is HCC1937. An outline of the steps: as §1
The subject of assay [3] is Hs578T. An outline of the steps: as §1
Assay [4] has as its system MDA-MB-468. The method in brief:
as §1

Assay [5] deals with CAL-120. The method in brief: as §1
The test system of assay [6] is MDA-MB-231. An outline of the steps: as §1
The test system of assay [7] is HCC1143. The method in brief: as §1
The subject of assay [8] is HDQ-P1. The method in brief: as §1
Assay [9] deals with CAL-51. An outline of the steps: as §1
The test system of assay [10] is MDA-MB-453. An outline of the steps:
as §1

Assay [11] concerns DU-4475. The method in brief:
as §1

Assay [12] concerns CAL-85-1. An outline of the steps: as §1
Assay [13] concerns MFM-223. The method in brief: (§2)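 In this assay, breast cancer cell lines spent 72 h with compound at 5 concentrations in 10-fold steps over a compound-specific 10,000-fold range. The first readout was cell death by CellTox Green fluorescence, and the second was viability by CellTiter-Glo luminescence, each normalised per plate to 0.1 % DMSO and a positive kill control. EC50 came from the dose-response curves, censored at the top concentration.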
This is another data set of the same source.

The test system of assay [14] is Hs578T. The method in brief:
as §2
The source holds these as a separate data set.

Assay [15] deals with CAL-51. An outline of the steps: as §2
The source holds these as a separate data set.

Assay [16] relates to SK-BR-3. The method in brief: as §2
The subject of assay [17] is CAL-120. An outline of the steps: as §2
The source holds these as a separate data set.

Assay [18] relates to MCF-10A. An outline of the steps: as §2
Assay [19] relates to MDA-MB-436. The method in brief:
as §1

The test system of assay [20] is SK-BR-3. An outline of the steps: as §1
This is another data set of the same source.

Assay [21] deals with BT-549. An outline of the steps:
as §1

For assay [22], the system named is CAL-148. The method in brief: as §2
Assay [23] relates to HCC1937. An outline of the steps:
as §2
This is another data set of the same source.

Assay [24] has as its system HCC1599. An outline of the steps:
as §2

Assay [25] concerns MDA-MB-436. The method in brief:
as §2
This is another data set of the same source.

Assay [26] deals with MDA-MB-453. An outline of the steps:
as §2
The source holds these as a separate data set.

Assay [27] has as its system DU-4475. The method in brief: as §2
The source holds these as a separate data set.

Assay [28] has as its system BT-549. An outline of the steps: as §2
This is another data set of the same source.

For assay [29], the system named is MDA-MB-231. An outline of the steps:
as §2
The source holds these as a separate data set.

The test system of assay [30] is CAL-85-1. The method in brief:
as §2
This is another data set of the same source.

Assay [31] concerns HCC1143. The method in brief: as §2
The source holds these as a separate data set.

In assay [32] the test system is CAL-148. An outline of the steps: as §1
This is another data set of the same source.

The subject of assay [33] is HCC1599. The method in brief: as §1
This is another data set of the same source.

For a further assay, the system named is BT-474. The method in brief:
as §1

Assay [34] has as its system MFM-223. Here is the method:
(§3)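 Drug sensitivity and resistance testing (DSRT) of breast cancer cell lines in 384-well plates, 5 concentrations in 10-fold dilutions over a compound-specific 10,000-fold range. After 72 h, cytotoxicity was read by CellTox Green fluorescence and viability by CellTiter-Glo luminescence (multiplexed), normalised to DMSO and benzethonium chloride controls. EC50 is the inflection point of the fitted dose-response curve (bottom asymptote free, so it can be relative for partial curves) and is censored at the highest tested concentration. Rows with DSS 0 (no meaningful response) were excluded.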
The source holds these as a separate data set.

The subject of assay [35] is Hs578T. Here is the method: as §3
The source holds these as a separate data set.

Assay [36] relates to HDQ-P1. The method, then: as §3
This is another data set of the same source.

Assay [37] deals with CAL-51. Here is the method: as §3
The source holds these as a separate data set.

The test system of assay [38] is MDA-MB-468. The method, then:
as §3
The source holds these as a separate data set.

Assay [39] has as its system BT-549. Here is the method: as §3
The source holds these as a separate data set.

In assay [40] the test system is MDA-MB-231. The method, then: as §3
This is another data set of the same source.

The subject of assay [41] is CAL-85-1. Here is the method: as §3
The source holds these as a separate data set.

The subject of assay [42] is MCF-10A. Here is the method:
as §3
The source holds these as a separate data set.

A value given as a limit tells only on which side of the number the result lay.

The results in this text go back to the supplement of paper PMC4862054.

Take `COc1cc(F)c(F)c(Nc2ccc(I)cc2F)c1NS(=O)(=O)C1(C[C@H](O)CO)CC1` [RDEA119]: the “EC50, CellTiter-Blue viability” value amounted to 2870 nM in the assay with MFM-223 [1]; 1310 nM with HCC1937 [2]; 81 nM with Hs578T [3]; 7180 nM in the assay on MDA-MB-468 [4]; 585 nM in the assay with CAL-120 [5]; 21.3 nM with MDA-MB-231 [6]. Also, the “EC50, CellTiter-Blue viability” value with HCC1143 [7] was found to be 159 nM; in the assay on HDQ-P1 [8], 318 nM; with CAL-51 [9], 196 nM; in the assay on MDA-MB-453 [10], 4260 nM; in the assay with DU-4475 [11], 42.6 nM; in the assay on CAL-85-1 [12] it was 557 nM.
With `CC(=O)c1c(C)c2cnc(Nc3ccc(N4CCNCC4)cn3)nc2n(C2CCCC2)c1=O`, the “EC50, CellTiter-Blue viability” value with Hs578T [3] was 7700 nM; in the assay on CAL-120 [5], 12.8 nM; in the assay with MDA-MB-231 [6], 460 nM; with HCC1143 [7], 9920 nM; in the assay with CAL-51 [9], 1170 nM; in the assay on MDA-MB-453 [10] it was 102 nM.
As for `CC(=O)c1c(C)c2cnc(Nc3ccc(N4CCNCC4)cn3)nc2n(C2CCCC2)c1=O` [Palbociclib], the “EC50, CellTiter-Glo” value with MFM-223 [13] is 86.9 nM; with Hs578T [14], greater than 10000 nM; in the assay on CAL-51 [15], greater than 10000 nM; in the assay with SK-BR-3 [16] it was 2240 nM; with CAL-120 [17], 409 nM; in the assay on MCF-10A [18], 1020 nM.
With `Nc1nc2[nH]cnc2c(=S)[nH]1` [Thioguanine], the “EC50, CellTiter-Blue viability” value worked out at 6660 nM in the assay with HCC1937 [2]; 6560 nM in the assay with Hs578T [3]; 667 nM with MDA-MB-436 [19]; 748 nM with MDA-MB-468 [4]; 9940 nM in the assay on SK-BR-3 [20]; 1140 nM in the assay with CAL-120 [5]. Besides, the “EC50, CellTiter-Blue viability” value in the assay with BT-549 [21] was 9860 nM; in the assay on MDA-MB-231 [6], 212 nM; in the assay with CAL-148 [32], 6600 nM; in the assay with CAL-51 [9] it was greater than 10000 nM; with CAL-85-1 [12] it was 1350 nM. The “EC50, CellTiter-Glo” value with CAL-148 [22] was found to be 1720 nM; with HCC1937 [23], 729 nM; in the assay on Hs578T [14] it was 1350 nM; in the assay on HCC1599 [24], 3450 nM; in the assay with MDA-MB-436 [25] it was 4730 nM; in the assay on CAL-51 [15], 2310 nM. Besides, the “EC50, CellTiter-Glo” value was found to be 4690 nM in the assay on MDA-MB-453 [26]; 4330 nM with DU-4475 [27]; 1320 nM in the assay with CAL-120 [17]; 9550 nM with BT-549 [28]; 491 nM in the assay with MDA-MB-231 [29]; 841 nM with CAL-85-1 [30]. In the assay with HCC1143 [31], the “EC50, CellTiter-Glo” value was found to be 4320 nM.
As to `CC[C@@H]1C(=O)OC[C@@H]1Cc1cncn1C` [Pilocarpine], the “EC50, CellTiter-Blue viability” value in the assay on MDA-MB-453 [10] came to 38300 nM.
For `CC(C)(C)c1cnc(CSc2cnc(NC(=O)C3CCNCC3)s2)o1` [SNS-032], the “EC50, CellTiter-Blue viability” value was determined as 169 nM with MFM-223 [1]; 79.7 nM in the assay on HCC1937 [2]; 101 nM in the assay on Hs578T [3]; 150 nM in the assay on HCC1599 [33]; 376 nM in the assay with MDA-MB-436 [19]; 353 nM in the assay on MDA-MB-468 [4]. In addition, the “EC50, CellTiter-Blue viability” value worked out at 123 nM in the assay on SK-BR-3 [20]; 168 nM with BT-474; 160 nM in the assay on CAL-120 [5]; 249 nM in the assay with BT-549 [21]; 133 nM in the assay on MDA-MB-231 [6]; 206 nM in the assay on HCC1143 [7]. Besides, the “EC50, CellTiter-Blue viability” value in the assay with CAL-148 [32] came to 128 nM; with HDQ-P1 [8], 110 nM; in the assay on CAL-51 [9], 571 nM; with MDA-MB-453 [10], 125 nM; with DU-4475 [11], 203 nM; in the assay with CAL-85-1 [12], 128 nM. Also, the “EC50, CellTox Green” value in the assay with MFM-223 [34] came to 142 nM; in the assay on Hs578T [35], 85.8 nM; with HDQ-P1 [36], 32.2 nM; with CAL-51 [37], 11.1 nM; with MDA-MB-468 [38], 7580 nM; in the assay with BT-549 [39] it was 255 nM. Moreover, the “EC50, CellTox Green” value in the assay with MDA-MB-231 [40] was found to be 30.9 nM; in the assay with CAL-85-1 [41], 41.2 nM; with MCF-10A [42], 172 nM. In addition, the “EC50, CellTiter-Glo” value amounted to 137 nM with MFM-223 [13]; 33.2 nM in the assay on CAL-148 [22]; 87.8 nM in the assay on HCC1937 [23]; 101 nM in the assay on Hs578T [14]; 233 nM in the assay on HCC1599 [24]; 46.8 nM with MDA-MB-436 [25]. Also, the “EC50, CellTiter-Glo” value came to 17.1 nM in the assay on CAL-51 [15]; 61.4 nM in the assay on SK-BR-3 [16]; 41.1 nM with MDA-MB-453 [26]; 203 nM with DU-4475 [27]; 102 nM in the assay on CAL-120 [17]; 41.9 nM in the assay with BT-549 [28]. Moreover, the “EC50, CellTiter-Glo” value in the assay on MDA-MB-231 [29] was determined as 54.1 nM; in the assay on CAL-85-1 [30] it was 62.8 nM; with MCF-10A [18], 157 nM; in the assay on HCC1143 [31] it was 46.5 nM.
